Assay [1] addresses JAK1 (recombinant purified GST-tagged catalytic domain) (Homo sapiens (Human), UniProt P23458). The experiment in a line: biochemical.
Assay [2] has as its target JAK2 (recombinant purified GST-tagged catalytic domain) (Homo sapiens (Human), UniProt O60674). The experiment in a line: biochemical.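 Further: biochemical JAK kinase assay with HTRF detection.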

By IC50 is commonly meant the concentration needed to halve the response being measured.

Chain of JAK2 (recombinant purified GST-tagged catalytic domain) (O60674 849-1124): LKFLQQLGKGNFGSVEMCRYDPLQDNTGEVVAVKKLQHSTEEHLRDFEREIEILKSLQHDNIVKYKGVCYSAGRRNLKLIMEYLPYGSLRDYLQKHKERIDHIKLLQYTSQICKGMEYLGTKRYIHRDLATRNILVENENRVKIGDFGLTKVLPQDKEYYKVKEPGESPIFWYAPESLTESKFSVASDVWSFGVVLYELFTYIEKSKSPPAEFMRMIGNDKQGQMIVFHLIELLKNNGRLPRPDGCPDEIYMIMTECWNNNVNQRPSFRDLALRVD
Chain of JAK1 (recombinant purified GST-tagged catalytic domain) (P23458 875-1153): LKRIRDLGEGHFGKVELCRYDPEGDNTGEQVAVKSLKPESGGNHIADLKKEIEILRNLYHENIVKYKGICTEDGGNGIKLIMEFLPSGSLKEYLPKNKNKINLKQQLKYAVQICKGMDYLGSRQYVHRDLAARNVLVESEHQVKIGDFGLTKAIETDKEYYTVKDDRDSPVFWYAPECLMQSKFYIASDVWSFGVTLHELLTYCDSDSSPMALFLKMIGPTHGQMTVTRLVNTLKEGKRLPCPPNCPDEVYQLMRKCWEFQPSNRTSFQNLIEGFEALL

Turning to `CS(=O)(=O)N[C@H]1CC[C@H](n2cc(C(N)=O)c(Nc3ccc(Cl)cc3)n2)[C@@H](C#N)C1` (racemic) [Example 38-4, 3-[(4-chlorophenyl)amino]-1-{(1S,2S,4R and 1R,2R,4S)-2-cyano-4-[(methylsulfonyl)amino]cyclohexyl}-1H-pyrazole-4-carboxamide], the values for the IC50 in assay [1] and in assay [2] were 0.5 nM and 5 nM, respectively.

For `CN([C@@H]1CC[C@H](n2cc(C(N)=O)c(Nc3ccc(Cl)cc3)n2)[C@@H](C#N)C1)S(C)(=O)=O` (racemic) [Example 38-5, 3-[(4-chlorophenyl)amino]-1-{(1S,2S,4R and 1R,2R,4S)-2-cyano-4-[methyl(methylsulfonyl)amino]cyclohexyl}-1H-pyrazole-4-carboxamide], the values for the IC50 in assay [1] and in assay [2] were 12 nM and 46 nM, respectively.

As to `CN([C@H]1CC[C@H](n2cc(C(N)=O)c(Nc3ccc(Cl)cc3)n2)[C@@H](C#N)C1)S(C)(=O)=O` (racemic) [Example 38-6, 3-[(4-chlorophenyl)amino]-1-{(1S,2S,4R and 1R,2R,4S)-2-cyano-4-[methyl(methylsulfonyl)amino]cyclohexyl}-1H-pyrazole-4-carboxamide], the IC50 was 1 nM in assay [1] and 6 nM in assay [2].

As to `N#C[C@H]1CCCC[C@@H]1n1cc(C(N)=O)c(Nc2ccc(Br)cc2)n1` (single isomer, unassigned) [Example 17-26, 3-[(4-bromophenyl)amino]-1-[(1S,2S or 1R,2R)-2-cyanocyclohexyl]-1H-pyrazole-4-carboxamide], the IC50 in assay [1] came out at 1 nM; in assay [2] it was 11 nM.

Turning to `N#C[C@H]1CCCC[C@@H]1n1cc(C(N)=O)c(Nc2cnc3cc(F)ccc3c2)n1` (single isomer, unassigned) [Example 17-41, 1-[(1S,2S or 1R,2R)-2-cyanocyclohexyl]-3-[(7-fluoroquinolin-3-yl)amino]-1H-pyrazole-4-carboxamide], the IC50 in assay [1] came out at 2 nM; in assay [2] it was 16 nM.

Consider `CC(C)(C(=O)O)c1ccc(Nc2nn([C@@H]3CCCC[C@H]3C#N)cc2C(N)=O)cc1` (single isomer, unassigned) [Example 17-43, 2-[4-({4-carbamoyl-1-[(1R,2R or 1S,2S)-2-cyanocyclohexyl]-1H-pyrazol-3-yl}amino)phenyl]-2-methylpropanoic acid], for which the IC50 is 0.12 nM in assay [1] and 7 nM in assay [2].

Turning to `N#C[C@H]1CCCC[C@@H]1n1cc(C(N)=O)c(Nc2cncc(Cl)c2)n1` (single isomer, unassigned) [Example 17-47, 3-[(5-chloropyridin-3-yl)amino]-1-[(1S,2S or 1R,2R)-2-cyanocyclohexyl]-1H-pyrazole-4-carboxamide], the half-inhibitory concentration (IC50) in assay [1] came out at 7 nM; in assay [2], 39 nM.

As for `N#C[C@H]1CCCC[C@@H]1n1cc(C(N)=O)c(Nc2cnc3ccc(F)cc3c2)n1` (single isomer, unassigned) [Example 17-48, 1-[(1S,2S or 1R,2R)-2-cyanocyclohexyl]-3-[(6-fluoroquinolin-3-yl)amino]-1H-pyrazole-4-carboxamide], the IC50 in assay [1] worked out at 2 nM; in assay [2], 14 nM.

Regarding `N#C[C@H]1CCCC[C@@H]1n1cc(C(N)=O)c(Nc2ccc(Cl)c(Cl)c2)n1` (single isomer, unassigned) [Example 17-49, 1-[(1S,2S or 1R,2R)-2-cyanocyclohexyl]-3-[(3,4-dichlorophenyl)amino]-1H-pyrazole-4-carboxamide], the half-inhibitory concentration (IC50) in assay [1] was determined as 17 nM; in assay [2], 93 nM.

On to `N#C[C@H]1CCCC[C@@H]1n1cc(C(N)=O)c(Nc2ccnnc2)n1` (single isomer, unassigned) [Example 17-53, 1-[(1S,2S or 1R,2R)-2-cyanocyclohexyl]-3-(pyridazin-4-ylamino)-1H-pyrazole-4-carboxamide], for which the values for the IC50 in assay [1] and in assay [2] were 3 nM and 28 nM, respectively.

Take `N#C[C@@H]1CCCC[C@H]1n1cc(C(N)=O)c(Nc2ccc(C(F)F)nc2)n1` (single isomer, unassigned) [Example 17-55, 1-[(1R,2R or 1S,2S)-2-cyanocyclohexyl]-3-{[6-(difluoromethyl)pyridin-3-yl]amino}-1H-pyrazole-4-carboxamide]: the figures for the IC50 in assay [1] and in assay [2] were 41 nM and 255 nM, respectively.

In the case of `N#C[C@H]1CCCC[C@@H]1n1cc(C(N)=O)c(Nc2ccc(C(F)F)nc2)n1` (single isomer, unassigned) [Example 17-59, 1-[(1S,2S or 1R,2R)-2-cyanocyclohexyl]-3-{[6-(difluoromethyl)pyridin-3-yl]amino}-1H-pyrazole-4-carboxamide], the figures for the IC50 in assay [1] and in assay [2] were 2 nM and 13 nM, respectively.

For the compound `N#C[C@H]1CCCC[C@@H]1n1cc(C(N)=O)c(Nc2cnc3ccc(Cl)cc3c2)n1` (single isomer, unassigned) [Example 17-60, 3-[(6-chloroquinolin-3-yl)amino]-1-[(1S,2S or 1R,2R)-2-cyanocyclohexyl]-1H-pyrazole-4-carboxamide], the values for the IC50 in assay [1] and in assay [2] were 6 nM and 23 nM, respectively.

With `N#C[C@@H]1CCCC[C@H]1n1cc(C(N)=O)c(Nc2ccc(S(=O)(=O)NCC3CC3)cc2)n1` (single isomer, unassigned) [Example 17-66, 1-[(1R,2R or 1S,2S)-2-cyanocyclohexyl]-3-({4-[(cyclopropylmethyl)sulfamoyl]phenyl}amino)-1H-pyrazole-4-carboxamide], the figures for the IC50 in assay [1] and in assay [2] were 0.33 nM and 1 nM, respectively.

`N#C[C@@H]1CCCC[C@H]1n1cc(C(N)=O)c(Nc2ccc(S(=O)(=O)Nc3ccccn3)cc2)n1` (single isomer, unassigned) [Example 17-67, 1-[(1R,2R or 1S,2S)-2-cyanocyclohexyl]-3-{[4-(pyridin-2-ylsulfamoyl)phenyl]amino}-1H-pyrazole-4-carboxamide]: the values for the IC50 in assay [1] and in assay [2] were 3 nM and 9 nM, respectively.

Consider `N#C[C@@H]1CCCC[C@H]1n1cc(C(N)=O)c(Nc2ccc(S(=O)(=O)NCCN3CCOCC3)cc2)n1` (single isomer, unassigned) [Example 17-68, 1-[(1R,2R or 1S,2S)-2-cyanocyclohexyl]-3-({4-[(2-morpholin-4-ylethyl)sulfamoyl]phenyl}amino)-1H-pyrazole-4-carboxamide], for which the IC50 in assay [1] worked out at 0.4 nM; in assay [2], 1 nM.

For `N#C[C@@H]1CCCC[C@H]1n1cc(C(N)=O)c(Nc2ccc(S(=O)(=O)N3CCC(Cc4ccccc4)CC3)cc2)n1` (single isomer, unassigned) [Example 17-69, 3-({4-[(4-benzylpiperidin-1-yl)sulfonyl]phenyl}amino)-1-[(1R,2R or 1S,2S)-2-cyanocyclohexyl]-1H-pyrazole-4-carboxamide], the IC50 turned out to be 30 nM in assay [1] and 67 nM in assay [2].

`COC(=O)c1cncc(Nc2nn([C@H]3CCCC[C@@H]3C#N)cc2C(N)=O)c1` (single isomer, unassigned) [Example 17-72, methyl 5-({4-carbamoyl-1-[(1R,2R or 1S,2S)-2-cyanocyclohexyl]-1H-pyrazol-3-yl}amino)pyridine-3-carboxylate]: the IC50 in assay [1] was found to be 12 nM; in assay [2], 89 nM.

For the origin of these results see patent publication US8962608B2, “Cycloalkylnitrile pyrazole carboxamides as janus kinase inhibitors” (Merck Sharp & Dohme Corp., priority 2011, dated 2015).
